Results taken from PMC7101356, “Cross-site and cross-platform variability of automated patch clamp assessments of drug effects on human cardiac currents in recombinant cells” (Scientific Reports, 2020).

How the values were obtained:
[1] = based on CiPA evaluations; cited from earlier work
peak hNav1.5 = target: T1, peak hNav1.5 (Homo sapiens, UniProt Q14524); assay: Automated patch clamp, peak hNav1.5 current block; assay type: cell-based; conditions: for nH (=constant), peak hNav1.5 Na+ current inhibition: Hill slope held constant in fit
T1 construct: expressed in transfected cells; host or cells: HEK293 or CHO, depending on site

late hNav1.5 = target: T2, late hNav1.5 (Homo sapiens, UniProt Q14524); assay: Automated patch clamp, late hNav1.5 current block (ATX-II activated); assay type: cell-based; conditions: for Late hNav1.5 Na+ current inhibition, Mean: 1.00E-05 mol/L
T2 construct: expressed in transfected cells; host or cells: HEK293 or CHO, depending on site
Method: However, all external solutions contained 30 nM ATX-II in order to activate late current. Late current was measured at its maximum during the repolarizing ramp.
Concentration-response relationships for each test article were independently investigated, i.e., each cell received only one test article, typically evaluating multiple concentrations in a cumulative fashion (lowest to highest concentrations). However, some platforms tested only one concentration per well. Each concentration response was based on a minimum of four concentrations, with a minimum of three wells used for each concentration. In cases of high variability, more cells per concentration were recorded. Prior to drug addition, cells received an addition of vehicle to measure non-test article-related effects such as addition artifacts. At the end of the experiment, a supramaximal concentration of a known inhibitory reference compound was applied to assess leak current and appropriate responsiveness of the test system.
(§1) The steady state current at each concentration was used to determine the concentration-response relationships. Mean concentration-response data were fitted to a standard sigmoidal four-parameter logistic equation (GraphPad Prism 7; GraphPad Inc., La Jolla, CA) of the form: Y=Bottom+(Top−Bottom)/(1+10^∧(LogIC50−X)∗HillSlope) where Y is the current inhibition (in % of pre-drug control), X is the logarithm of drug concentration, and IC50 is the drug concentration producing half-maximal current inhibition. Curve fitting was performed using the following constraints: Top = 100%, Bottom = 0%, Hill Slope <2. No curve fitting was performed in cases with an obvious lack of a concentration-dependent current inhibition and/or small effect size (approximately ≤20%).

hCav1.2 = hCav1.2 (Homo sapiens, UniProt Q13936); assay: Automated patch clamp, hCav1.2 current block; conditions: for IC50: log IC50, half-maximal inhibitory concentration
Method: Peak current was measured during the step to 0 mV. Leak current was measured after applying a saturating concentration of a blocker such as cadmium (200 µM) at the end of each experiment to completely block hCav1.2 current.
Concentration-response relationships for each test article were independently investigated, i.e., each cell received only one test article, typically evaluating multiple concentrations in a cumulative fashion (lowest to highest concentrations). However, some platforms tested only one concentration per well. Each concentration response was based on a minimum of four concentrations, with a minimum of three wells used for each concentration. In cases of high variability, more cells per concentration were recorded. Prior to drug addition, cells received an addition of vehicle to measure non-test article-related effects such as addition artifacts. At the end of the experiment, a supramaximal concentration of a known inhibitory reference compound was applied to assess leak current and appropriate responsiveness of the test system. While it was recommended that a separate group of cells (n ≥ 3) be recorded for each experimental day to determine the baseline response to vehicle and to address day-to-day variability, this was not verified.
These criteria were applied to all APC platforms.
as §1

[2] = site s02_p2, corrected for rundown

T1 sequence (Q14524 whole entry): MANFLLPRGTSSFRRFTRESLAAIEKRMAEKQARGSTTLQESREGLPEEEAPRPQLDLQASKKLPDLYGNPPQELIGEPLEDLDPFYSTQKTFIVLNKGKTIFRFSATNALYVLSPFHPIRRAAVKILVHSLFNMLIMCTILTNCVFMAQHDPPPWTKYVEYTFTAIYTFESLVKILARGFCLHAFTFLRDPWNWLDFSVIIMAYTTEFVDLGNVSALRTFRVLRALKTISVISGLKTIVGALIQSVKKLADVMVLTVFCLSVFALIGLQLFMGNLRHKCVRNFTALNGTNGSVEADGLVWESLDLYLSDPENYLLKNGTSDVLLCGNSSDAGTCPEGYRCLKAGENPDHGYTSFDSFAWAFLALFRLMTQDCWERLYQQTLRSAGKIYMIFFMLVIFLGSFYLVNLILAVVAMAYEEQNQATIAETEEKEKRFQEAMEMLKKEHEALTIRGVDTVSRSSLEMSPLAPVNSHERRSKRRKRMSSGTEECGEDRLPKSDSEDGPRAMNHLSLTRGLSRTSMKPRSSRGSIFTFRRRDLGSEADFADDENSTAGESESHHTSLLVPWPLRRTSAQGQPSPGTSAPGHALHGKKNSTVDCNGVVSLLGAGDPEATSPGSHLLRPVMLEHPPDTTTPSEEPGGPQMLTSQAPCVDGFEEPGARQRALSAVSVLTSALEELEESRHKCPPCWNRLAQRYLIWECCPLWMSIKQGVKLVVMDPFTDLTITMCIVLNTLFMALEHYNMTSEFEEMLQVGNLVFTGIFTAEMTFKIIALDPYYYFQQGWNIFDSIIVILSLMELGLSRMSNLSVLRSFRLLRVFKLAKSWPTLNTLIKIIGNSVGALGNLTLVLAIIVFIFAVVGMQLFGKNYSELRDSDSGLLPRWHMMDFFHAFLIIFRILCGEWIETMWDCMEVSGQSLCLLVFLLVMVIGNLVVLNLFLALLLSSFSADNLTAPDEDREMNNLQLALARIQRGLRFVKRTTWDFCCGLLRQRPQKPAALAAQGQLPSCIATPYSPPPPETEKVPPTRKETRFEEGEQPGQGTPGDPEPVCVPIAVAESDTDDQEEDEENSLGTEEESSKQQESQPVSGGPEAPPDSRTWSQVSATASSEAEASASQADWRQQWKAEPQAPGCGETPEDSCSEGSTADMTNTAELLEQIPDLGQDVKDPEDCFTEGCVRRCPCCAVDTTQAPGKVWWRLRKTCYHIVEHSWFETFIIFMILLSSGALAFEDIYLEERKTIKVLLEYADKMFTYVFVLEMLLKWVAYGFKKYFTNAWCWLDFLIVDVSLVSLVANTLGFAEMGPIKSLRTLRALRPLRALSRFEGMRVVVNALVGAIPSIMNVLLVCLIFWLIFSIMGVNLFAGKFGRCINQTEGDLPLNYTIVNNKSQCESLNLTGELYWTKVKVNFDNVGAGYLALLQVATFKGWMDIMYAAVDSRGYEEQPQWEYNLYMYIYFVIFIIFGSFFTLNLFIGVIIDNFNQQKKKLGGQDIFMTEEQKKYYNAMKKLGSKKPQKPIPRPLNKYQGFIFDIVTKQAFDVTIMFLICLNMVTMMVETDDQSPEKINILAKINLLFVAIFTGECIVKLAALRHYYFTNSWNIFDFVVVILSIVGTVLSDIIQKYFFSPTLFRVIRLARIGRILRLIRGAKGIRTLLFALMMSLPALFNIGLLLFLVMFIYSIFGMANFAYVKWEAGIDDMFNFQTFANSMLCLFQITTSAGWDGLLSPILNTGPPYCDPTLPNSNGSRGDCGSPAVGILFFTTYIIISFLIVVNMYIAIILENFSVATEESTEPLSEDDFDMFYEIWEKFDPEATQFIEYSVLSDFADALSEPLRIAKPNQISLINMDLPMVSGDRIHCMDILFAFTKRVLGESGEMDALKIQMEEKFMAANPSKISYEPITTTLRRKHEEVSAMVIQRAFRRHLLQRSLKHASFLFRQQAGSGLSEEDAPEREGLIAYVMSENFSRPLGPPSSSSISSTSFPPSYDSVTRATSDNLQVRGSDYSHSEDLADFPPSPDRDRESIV
T2 sequence (Q14524 whole entry): as above

SMILES: CN(C)CCCN1c2ccccc2Sc2ccc(Cl)cc21 [cpz, chlorpromazine]
- TdP Risk Category [1]: Intermediate

SMILES: CN(CCOc1ccc(NS(C)(=O)=O)cc1)CCc1ccc(NS(C)(=O)=O)cc1 [dof, dofetilide]
- TdP Risk Category [1]: High

SMILES: C=C[C@H]1C[N@@]2CC[C@H]1C[C@@H]2[C@@H](O)c1ccnc2ccc(OC)cc12 [qui, quinidine]
- Peak hNav1.5 Na+ current inhibition, Mean (peak hNav1.5; site_platform s01_p1, 1.00E-05 mol/L): 72.9%
- Peak hNav1.5 Na+ current inhibition, Mean (peak hNav1.5; site_platform s01_p1, 1.00E-07 mol/L): 51.7%
- nH (=constant), peak hNav1.5 Na+ current inhibition (peak hNav1.5; site_platform s01_p1): 1
- nH (=constant), peak hNav1.5 Na+ current inhibition (peak hNav1.5; site_platform s02_p2): 1
- nH (=constant), peak hNav1.5 Na+ current inhibition (peak hNav1.5; site_platform s04_p3): 1
- nH (=constant), peak hNav1.5 Na+ current inhibition (peak hNav1.5; site_platform s06_p4): 1
- nH (=constant), peak hNav1.5 Na+ current inhibition (peak hNav1.5; site_platform s07_p6): 1
- nH, Hill slope, peak hNav1.5 inhibition (peak hNav1.5; site_platform s10_p3): 1
- nH, Hill slope, peak hNav1.5 inhibition (peak hNav1.5; site_platform s11_p1): 1
- Peak hNav1.5 Na+ current inhibition, Mean (peak hNav1.5; site_platform s11_p1, 1.00E-05 mol/L): 30.0%
- nH, Hill slope, peak hNav1.5 inhibition (peak hNav1.5; site_platform s12_p2): 1
- nH, Hill slope, peak hNav1.5 inhibition (peak hNav1.5; site_platform s13_p2): 1
- nH, Hill slope, peak hNav1.5 inhibition (peak hNav1.5; site_platform s14_p1): 1
- nH, Hill slope, peak hNav1.5 inhibition (peak hNav1.5; site_platform s15_p1): 1
- Peak hNav1.5 Na+ current inhibition, Mean (peak hNav1.5; site_platform s15_p1, 1.00E-05 mol/L): 52.7%
- nH, Hill slope, peak hNav1.5 inhibition (peak hNav1.5; site_platform s16_p3): 1
- nH, Hill slope, peak hNav1.5 inhibition (peak hNav1.5; site_platform s17_p1): 1
- Peak hNav1.5 Na+ current inhibition, Mean (peak hNav1.5; site_platform s17_p1, 1.00E-05 mol/L): 54.0%
- nH, Hill slope, peak hNav1.5 inhibition (peak hNav1.5; site_platform s18_p1): 1
- nH, Hill slope, peak hNav1.5 inhibition (peak hNav1.5; site_platform s19_p3): 1
- TdP Risk Category [1]: High
- nH, Hill slope, late hNav1.5 inhibition (late hNav1.5; site_platform s06_p4): 0.91
- Late hNav1.5 Na+ current inhibition, Mean (late hNav1.5; site_platform s06_p4): 78.1%
- nH, Hill slope, late hNav1.5 inhibition (late hNav1.5; site_platform s07_p6): 0.74
- Late hNav1.5 Na+ current inhibition, Mean (late hNav1.5; site_platform s07_p6): 46.2%
- nH, Hill slope, late hNav1.5 inhibition (late hNav1.5; site_platform s13_p2): 0.63
- nH, Hill slope, late hNav1.5 inhibition (late hNav1.5; site_platform s14_p1): 2.00
- Late hNav1.5 Na+ current inhibition, Mean (late hNav1.5; site_platform s14_p1): 68.8%

SMILES: COc1ccccc1OCC(O)CN1CCN(CC(=O)Nc2c(C)cccc2C)CC1 (stereo not shown) [ran, ranolazine]
- TdP Risk Category [1]: Low
- IC50 (hCav1.2; [2]): 501 µM
- IC50 (hCav1.2; site s06_p4): 186 µM
- IC50 (hCav1.2; site s11_p1): 1350 µM
- IC50 (hCav1.2; site s14_p1): 245 µM
- IC50 (hCav1.2; site s16_p3): 3090 µM
- IC50 (hCav1.2; site s18_p1): 148 µM
- Peak hCav1.2 Ca2+ current inhibition, Mean (hCav1.2; site s01_p1, 1.00E-04 mol/L): 9.0%
- Peak hCav1.2 Ca2+ current inhibition, Mean (hCav1.2; site s01_p1, 3.00E-06 mol/L): -2.7%
- nH, Hill slope (hCav1.2; [2]): 0.74
- Peak hCav1.2 Ca2+ current inhibition, Mean (hCav1.2; site s02_p2, corrected for rundown, 1.00E-04 mol/L): 22.9%
- Peak hCav1.2 Ca2+ current inhibition, Mean (hCav1.2; site s02_p2, corrected for rundown, 3.00E-06 mol/L): -1.8%
- nH, Hill slope (hCav1.2; site s06_p4): 2.00
- Peak hCav1.2 Ca2+ current inhibition, Mean (hCav1.2; site s06_p4, 1.00E-04 mol/L): 23.0%
- Peak hCav1.2 Ca2+ current inhibition, Mean (hCav1.2; site s06_p4, 3.00E-06 mol/L): 12.9%
- nH, Hill slope (hCav1.2; site s11_p1): 0.32
- Peak hCav1.2 Ca2+ current inhibition, Mean (hCav1.2; site s11_p1, 1.00E-04 mol/L): 33.0%
- Peak hCav1.2 Ca2+ current inhibition, Mean (hCav1.2; site s11_p1, 3.00E-06 mol/L): 14.1%
- nH, Hill slope (hCav1.2; site s14_p1): 1.42
- Peak hCav1.2 Ca2+ current inhibition, Mean (hCav1.2; site s14_p1, 1.00E-04 mol/L): 21.7%
- Peak hCav1.2 Ca2+ current inhibition, Mean (hCav1.2; site s14_p1, 3.00E-06 mol/L): -1.7%
- nH, Hill slope (hCav1.2; site s16_p3): 0.24
- Peak hCav1.2 Ca2+ current inhibition, Mean (hCav1.2; site s16_p3, 1.00E-04 mol/L): 31.8%
- Peak hCav1.2 Ca2+ current inhibition, Mean (hCav1.2; site s16_p3, 3.00E-06 mol/L): 16.5%
- nH, Hill slope (hCav1.2; site s18_p1): 2.00
- Peak hCav1.2 Ca2+ current inhibition, Mean (hCav1.2; site s18_p1, 1.00E-04 mol/L): 36.1%
- Peak hCav1.2 Ca2+ current inhibition, Mean (hCav1.2; site s18_p1, 3.00E-06 mol/L): -14.2%

SMILES: CC(C)(C)c1ccc(C(O)CCCN2CCC(C(O)(c3ccccc3)c3ccccc3)CC2)cc1 (stereo not shown) [ter, terfenadine]
- nH, Hill slope (hCav1.2; site s01_p1): 1.62
- Peak hCav1.2 Ca2+ current inhibition, Mean (hCav1.2; site s01_p1, 3.00E-07 mol/L): 35.6%
- nH, Hill slope (hCav1.2; [2]): 1.40
- Peak hCav1.2 Ca2+ current inhibition, Mean (hCav1.2; site s02_p2, corrected for rundown, 3.00E-07 mol/L): 74.7%
- nH, Hill slope (hCav1.2; site s04_p3): 0.41
- Peak hCav1.2 Ca2+ current inhibition, Mean (hCav1.2; site s04_p3, 3.00E-07 mol/L): 32.9%
- nH, Hill slope (hCav1.2; site s16_p3): 0.65
- Peak hCav1.2 Ca2+ current inhibition, Mean (hCav1.2; site s16_p3, 3.00E-07 mol/L): 52.1%
- nH, Hill slope (hCav1.2; site s18_p1): 2.00
- Peak hCav1.2 Ca2+ current inhibition, Mean (hCav1.2; site s18_p1, 3.00E-07 mol/L): 56.4%
